Numbered stars: 1 amine (or outer) side, 2 acyl side, 3 side chain; on linkers, the order of the positions; unused ones are H or OH. Square brackets hold non-standard residues; d marks the D form. Side chains are listed from the residue outwards. Peptide text beside a SMILES is read from it. * marks the point of attachment. C18 diacid = O=C(O)CCCCCCCCCCCCCCCCC(=O)*; γGlu = O=C(O)[C@H](CCC(=O)[*:2])N[*:1]; AEEA = NCCOCCOCC(=O)O; Aib = CC(C)(N)C(=O)O

The EC50 is the concentration that produces a half-maximal response. A word on the Ki: it is the equilibrium dissociation constant of an inhibitor or competing ligand from its target.

For test [1], the target named is T1, gastric inhibitory peptide receptor (GIPR) (Homo sapiens, UniProt P48546).
T1 sequence (P48546 22-466): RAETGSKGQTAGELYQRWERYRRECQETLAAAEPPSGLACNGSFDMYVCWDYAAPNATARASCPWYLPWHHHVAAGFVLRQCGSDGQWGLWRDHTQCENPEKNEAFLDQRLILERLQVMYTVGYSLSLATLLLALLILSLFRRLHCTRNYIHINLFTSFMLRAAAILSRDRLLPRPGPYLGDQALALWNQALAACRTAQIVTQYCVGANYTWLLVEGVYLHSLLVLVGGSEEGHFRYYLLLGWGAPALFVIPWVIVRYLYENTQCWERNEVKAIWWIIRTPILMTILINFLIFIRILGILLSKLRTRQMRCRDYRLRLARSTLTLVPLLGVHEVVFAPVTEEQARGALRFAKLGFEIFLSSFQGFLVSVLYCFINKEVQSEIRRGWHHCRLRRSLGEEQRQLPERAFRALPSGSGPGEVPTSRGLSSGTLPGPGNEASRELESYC
The test is described as follows: cAMP pharmacological functional assay in presence of casein, hGIPR. The format is cell-based. The conditions noted are these: HEK293 cells expressing hGIPR, 0.1% Casein, geometric mean; read-out: hGIPR cAMP Rel EC50 nM (SEM, n).

In test [2] the target is T2, human GIP receptor (Homo sapiens, UniProt P48546).
T2 construct: expressed in transfected cells; crude membranes
T2 sequence (P48546 22-466): T1 sequence (P48546 22-466)
The test is described as follows: [125I]-GIP binding (SPA), human GIP receptor. As to conditions: read-out: hGIPR Ki, nM (SEM, n).

In test [3] the target is human GLP-1 receptor (GLP-1R) (Homo sapiens, UniProt P43220). The test is described as follows: cAMP pharmacological functional assay in presence of casein, hGLP-1R. The format is cell-based. The conditions noted are these: HEK293 cells expressing hGLP-1R, 0.1% Casein, geometric mean; read-out: hGLP1R cAMP Rel EC50 nM (SEM, n).
Test [4] has as its target T3, human GLP-1R (Homo sapiens, UniProt P43220). The test is described as follows: GLP-1R CHO cell β-arrestin recruitment assay. The format is cell-based. Further details: host or cells: CHO-K1 PathHunter cells, assay-ready frozen. As to conditions: for EC50: CHO-K1 cells, PathHunter β-arrestin-2 recruitment, 0.1% casein, read-out: hGLP1R B-Arrestin2 Rel EC50 uM (SEM, n); for hGLP1R B-Arrestin2 % Top: normalized to GLP-1 maximum control. In a few lines:
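PathHunter CHO-K1 cells with ProLink-tagged human GLP-1R and enzyme-acceptor-tagged β-arrestin-2 treated with serially diluted peptides in assay buffer containing 0.1% hydrolyzed casein, 90 min at 37 °C.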
Background: Arrestin recruitment assays detect the binding of arrestin to an activated receptor.

The target of test [5] is T3, human GLP-1R. The test is described as follows: GLP-1R HEK293 cell membrane [35S]GTPγS binding assay. The format is biochemical. Further details: expressed in transfected cells; host or cells: HEK293 cells expressing human GLP-1R; membranes. The conditions noted are these: HEK293 cell membranes expressing human GLP-1R, [35S]GTPγS binding; read-out: hGLP1R GTPgS Rel EC50 nM (SEM, n). In a few lines: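 Membranes from HEK293 cells expressing the receptor incubated with peptide and […] [35S]GTPγS in HEPES pH 7.4 buffer with NaCl, MgCl2, saponin and BSA, 30 min at room temperature. Gαs-bound label captured by anti-Gαs antibody/SPA beads and counted; EC50 from four-parameter logistic fit.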
A general note: Binding of GTPγS marks nucleotide exchange on a G protein.

For test [6], the target named is T4, human Gcg receptor (Homo sapiens, UniProt P47871).
T4 construct: expressed in transfected cells; crude membranes
The test is described as follows: [125I]-Glucagon binding (SPA), human Gcg receptor. The conditions noted are these: read-out: hGLcgR Ki, nM (SEM, n). The method in brief: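 Scintillation counts are taken after membranes and WGA beads incubate and settle for 12 hours at room temperature. Buffer is 25 mM HEPES, pH 7.4, with CaCl2, MgCl2, bacitracin and Tween-20. Ki values, from four-parameter IC50 fits, are geometric means over independent days.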

Test [7] deals with T3, human GLP-1R. The test is described as follows: [125I]-GLP-1 binding (SPA), human GLP-1 receptor. Further details: expressed in transfected cells; crude membranes. The conditions noted are these: read-out: hGLP1R Ki, (nM) (SEM, n). The method in brief:
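Frozen cell pellets are lysed on ice in hypotonic Tris buffer, pH 7.5, homogenized, and centrifuged to a membrane pellet resuspended at about 1 to 3 mg/mL. Binding is then measured in HEPES-based buffer at pH 7.4, and curves are fitted to give IC50 and Ki.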

T3 sequence (P43220 24-463): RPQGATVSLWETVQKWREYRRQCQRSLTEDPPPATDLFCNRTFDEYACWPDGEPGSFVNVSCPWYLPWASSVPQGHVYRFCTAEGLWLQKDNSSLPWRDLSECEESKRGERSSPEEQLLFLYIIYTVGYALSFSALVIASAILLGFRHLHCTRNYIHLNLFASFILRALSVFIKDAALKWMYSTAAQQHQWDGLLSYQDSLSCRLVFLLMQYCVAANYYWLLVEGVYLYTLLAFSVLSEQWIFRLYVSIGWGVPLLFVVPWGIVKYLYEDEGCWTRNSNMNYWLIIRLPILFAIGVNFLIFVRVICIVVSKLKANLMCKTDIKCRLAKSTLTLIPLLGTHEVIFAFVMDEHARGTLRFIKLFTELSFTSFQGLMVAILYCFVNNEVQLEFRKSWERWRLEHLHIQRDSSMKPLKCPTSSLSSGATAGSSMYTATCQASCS
Sequence of human GLP-1 receptor (GLP-1R) (P43220 24-463): as above
T4 sequence (P47871 26-477): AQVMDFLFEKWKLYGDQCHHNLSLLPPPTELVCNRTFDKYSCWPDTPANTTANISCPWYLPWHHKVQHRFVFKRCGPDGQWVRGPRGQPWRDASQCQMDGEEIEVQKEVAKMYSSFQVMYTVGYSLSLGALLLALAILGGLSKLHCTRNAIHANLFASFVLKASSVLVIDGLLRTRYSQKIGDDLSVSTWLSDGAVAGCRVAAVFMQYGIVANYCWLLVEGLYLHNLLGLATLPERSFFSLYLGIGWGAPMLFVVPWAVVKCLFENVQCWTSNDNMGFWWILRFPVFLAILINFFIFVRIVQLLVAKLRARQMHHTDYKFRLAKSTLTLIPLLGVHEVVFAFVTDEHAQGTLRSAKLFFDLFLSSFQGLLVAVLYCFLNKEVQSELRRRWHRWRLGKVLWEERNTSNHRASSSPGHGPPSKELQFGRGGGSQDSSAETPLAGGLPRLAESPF

`CC[C@H](C)[C@H](NC(=O)[C@H](CC(C)C)NC(=O)[C@H](Cc1ccc(O)cc1)NC(=O)[C@H](CCC(=O)O)NC(=O)[C@@H](NC(=O)[C@H](Cc1ccccc1)NC(=O)[C@H](C)NC(=O)C(C)(C)NC(=O)[C@H](CCC(N)=O)NC(=O)[C@H](C)NC(=O)[C@H](CCCCNC(=O)COCCOCCNC(=O)COCCOCCNC(=O)CC[C@H](NC(=O)CCCCCCCCCCCCCCCCC(=O)O)C(=O)O)NC(=O)[C@H](CCCCN)NC(=O)[C@H](CC(=O)O)NC(=O)[C@H](CC(C)C)NC(=O)[C@H](CC(C)C)NC(=O)[C@@H](NC(=O)[C@H](CO)NC(=O)[C@H](Cc1ccc(O)cc1)NC(=O)[C@H](CC(=O)O)NC(=O)[C@H](CO)NC(=O)[C@@H](NC(=O)[C@H](Cc1ccccc1)NC(=O)[C@@H](NC(=O)CNC(=O)[C@H](CCC(=O)O)NC(=O)C(C)(C)NC(=O)[C@@H](N)Cc1ccc(O)cc1)[C@@H](C)O)[C@@H](C)O)[C@@H](C)CC)[C@@H](C)CC)C(=O)N[C@@H](CCC(=O)O)C(=O)NCC(=O)NCC(=O)N1CCC[C@H]1C(=O)N[C@@H](CO)C(=O)N[C@@H](CO)C(=O)NCC(N)=O` [Example 266] (H-Y[Aib]EGTFTSDYSILLDKK([AEEA-AEEA-γGlu-C18 diacid])AQ[Aib]AFIEYLIEGGPSSG-NH2): the concentration for a half-maximal effect (EC50) worked out at 0.0442 nM in test [1], 0.0883 nM in test [3], 0.016 µM in test [4] and 0.865 nM in test [5]. Moreover, the results for the Ki in test [2], in test [6] and in test [7] were 0.0666 nM, 193 nM and 2.01 nM, respectively. Besides, in test [4], the “hGLP1R B-Arrestin2 % Top” value was found to be 17.1%.
Regarding `CC[C@H](C)[C@H](NC(=O)[C@H](CC(C)C)NC(=O)[C@H](Cc1ccc(O)cc1)NC(=O)[C@H](CCC(=O)O)NC(=O)[C@@H](NC(=O)[C@H](Cc1ccccc1)NC(=O)[C@H](C)NC(=O)C(C)(C)NC(=O)[C@H](CCC(N)=O)NC(=O)[C@H](C)NC(=O)[C@H](CCCCNC(=O)COCCOCCNC(=O)COCCOCCNC(=O)CC[C@H](NC(=O)CCCCCCCCCCCCCCCCC(=O)O)C(=O)O)NC(=O)[C@H](CCCCN)NC(=O)[C@H](CC(=O)O)NC(=O)[C@H](CC(C)C)NC(=O)[C@H](CC(C)C)NC(=O)[C@@H](NC(=O)[C@H](CO)NC(=O)[C@H](Cc1ccc(O)cc1)NC(=O)[C@H](CC(=O)O)NC(=O)[C@H](CO)NC(=O)[C@@H](NC(=O)[C@H](Cc1ccccc1)NC(=O)[C@@H](NC(=O)CNC(=O)[C@H](CCC(=O)O)NC(=O)C(C)(C)NC(=O)[C@@H](N)Cc1ccc(O)cc1)[C@@H](C)O)[C@@H](C)O)[C@@H](C)CC)[C@@H](C)CC)C(=O)N[C@@H](CCC(=O)O)C(=O)NCC(=O)NCC(N)=O` [Example 267] (H-Y[Aib]EGTFTSDYSILLDKK([AEEA-AEEA-γGlu-C18 diacid])AQ[Aib]AFIEYLIEGG-NH2), the EC50 in test [1] amounted to 0.108 nM; in test [3], 0.054 nM; in test [4], 0.00901 µM; in test [5], 0.867 nM. The Ki in test [2] was found to be 0.0628 nM; in test [6], 349 nM; in test [7] it was 1.57 nM. The “hGLP1R B-Arrestin2 % Top” value in test [4] amounted to 16.5%.

The values above are taken from patent publication US12252524B2, “GIP/GLP1 co-agonist compounds” (Eli Lilly and Company, priority 2018, dated 2025).
